One series concerns the target T1, Der p 1 (Dermatophagoides pteronyssinus, UniProt P08176).
T1 sequence (P08176 99-320): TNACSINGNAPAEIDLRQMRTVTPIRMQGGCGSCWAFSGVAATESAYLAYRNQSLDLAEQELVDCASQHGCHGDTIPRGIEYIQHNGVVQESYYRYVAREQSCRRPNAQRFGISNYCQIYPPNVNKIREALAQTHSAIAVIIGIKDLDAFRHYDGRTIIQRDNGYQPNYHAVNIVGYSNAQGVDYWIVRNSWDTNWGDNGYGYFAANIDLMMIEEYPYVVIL
The experiment in a line: biochemical. The class given is biochemical.

Another series deals with human liver Cat B (Homo sapiens, UniProt P07858). Kind of series: Cathepsin B inhibition assay. To be noted: for IC50: read-out: Cat B IC50, mean ± SE.
The nature of series [1]: Measurement of LogD7.4 (n-octanol/PBS shake). To be noted: single determination, n-octanol/PBS pH 7.4; read-out: Log D7.4. Type of series: physicochemical. On the procedure: Appendix 4. Measurement of LogD7.4
Test compounds (~1 mg) were weighed into 2 mL HPLC vials. n- Octanol (0.7 mL), pre-saturated with 10 mM phosphate buffered saline pH7.4 (PBS), was added to each vial followed b y PBS (0. 7 mL), which had been pre-saturat ed with n-octanol. The mixtures were shaken for 90 min and then centrifuged for 10 min at 4,000 rpm. The upper organic l ayer (0.2 m L) and the aqueous la yer (0.5 mL) were removed from each vial and anal yz e d b y LC -MS. Mass spect ral anal ysis was used to confirm peak identity whilst the concentration of compound was assessed by a diode arra y det ecto r. The logD for each compound was calculated b y takin g th e lo g of its concentration ratio between the oct anol and aqueous la ye r s.Given the robustness of the assa y and the fact that the info rmation was us ed onl y for gen eral guid ance, thes e measu rements were based on singlicate det erminations.

Series [2] deals with nonsensitized rats challenged with a natural mixture of HDM allergens. The conditions noted are these: i.t. aerosol typically 60-360 min prior to allergen challenge, unsensitised BN rats.

Molecules are shown by their SMILES. Where two headings read alike, the source gives them in different places.

Experimental for Der p 1: Automated screening of inhibitory activity toward group 1 HDM peptidase allergens was performed as described elsewhere[25],[43] with the minor modification that Der p 1 or Der f 1 were incubated with inhibitors for 20 min prior to initiation of reactions by addition of substrate. In initial screening, the activity of each compound was measured using a series of 10 doubling dilutions from a starting concentration of 50 μM. […] Assays were performed in triplicate for calculation of mean ± SE IC50 values.
Experimental for human liver Cat B: Inhibition of Cat B was measured as described with modifications.[25] […] Progress curves were followed at 30 °C by detection of fluorescence at 320/420 nm (excitation/emission).
In all cases, for reactions involving inhibitors, the amount of reaction buffer was adjusted to 60 μL, the inhibitor added as a 10 μL aliquot, and incubated for 20 min with the enzyme prior to reaction start.

Turning to `Cc1n[nH]c(C)c1C(=O)N[C@H](C(=O)N[C@@H](C)C(=O)NC(C(=O)C(=O)NCc1ccccc1)C(C)C)C(C)(C)C` (mixture of isomers) [Compound 30], the IC50 (as a rule, the point on the concentration scale where inhibition reaches its midpoint) at Der p 1 came to 67 ± 10 nM.
Take `CC(C)C(NC(=O)[C@H](C)NC(=O)[C@H](Cc1ccccc1)NC(=O)c1ccccc1)C(=O)C(=O)NC1CCOCC1` (mixture of isomers) [Compound 33]: the figures for the IC50 on human liver Cat B and against Der p 1 (mean ± SE) were 311 ± 6 nM and 55 ± 4 nM, respectively.
On Der p 1 (mean ± SE), `CCCC[C@H](NC(=O)[C@H](C)NC(=O)[C@H](Cc1ccccc1)NC(=O)c1ccccc1)C(=O)CN1CCCC1` [Compound 3] returned a 50% inhibitory concentration (IC50) of 65 nM.
Same read-out and setting: to `CCCC[C@H](NC(=O)[C@H](C)NC(=O)[C@H](Cc1ccccc1)NC(=O)c1ccccc1)C(=O)C(=O)N1CCCC1` [Compound 4] belongs 997 nM.
`CC(C)[C@H](NC(=O)[C@H](C)NC(=O)[C@H](Cc1ccccc1)NC(=O)c1ccccc1)C(=O)C(=O)NCc1ccccc1` [Compound 20]: the IC50 at human liver Cat B was 50 ± 5 nM; on Der p 1 (mean ± SE) it was 12 ± 2 nM.
The compound `C[C@H](NC(=O)[C@H](Cc1ccccc1)NC(=O)c1ccccc1)C(=O)N[C@H](C(=O)C(=O)NC1CCCCC1)C(C)(C)C` [Compound 21] displayed an IC50 at Der p 1 (mean ± SE) of 9170 ± 880 nM.
For `CC(C)[C@H](NC(=O)[C@H](C)NC(=O)[C@@H](NC(=O)c1ccccc1)C(C)(C)c1ccccc1)C(=O)C(=O)NCc1ccccc1` [Compound 23], the IC50 was determined as 446 ± 11 nM on human liver Cat B and 42 ± 6 nM at Der p 1 (mean ± SE).
For `CCC[C@H](NC(=O)[C@H](Cc1ccccc1)NC(=O)c1ccccc1)C(=O)N[C@H](C(=O)C(=O)NC1CCCCC1)C(C)C` [Compound 24], in that order: 67 ± 1 nM and 164 ± 24 nM.
As to `CC(C)[C@H](NC(=O)[C@H](C)NC(=O)[C@@H](NC(=O)c1cccc2ccccc12)C(C)(C)C)C(=O)C(=O)NC1CCCCC1` [Compound 25], the IC50 at human liver Cat B is 721 ± 35 nM; on Der p 1 (mean ± SE), 20 ± 3 nM. Besides, the logD at 1.5 h in series [1] was determined as 4.3.
For `CC(C)[C@H](NC(=O)[C@H](C)NC(=O)[C@@H](NC(=O)c1ccnc2ccccc12)C(C)(C)C)C(=O)C(=O)NC1CCCCC1` [Compound 26], the IC50 on human liver Cat B came out at 628 ± 47 nM; against Der p 1 (mean ± SE), 13 ± 2 nM. Further, the logD at 1.5 h in series [1] was found to be 3.5.
Consider `CC(C)[C@H](NC(=O)[C@H](C)NC(=O)[C@@H](NC(=O)c1ccnc2ccccc12)C(C)(C)C)C(=O)C(=O)NCc1ccccc1` [Compound 27, Quinoline-4-carboxylic Acid {(S)-1-[(S)-1-((S)-1-Benzylaminooxalyl-2-methyl-propylcarbamoyl)-ethylcarbamoyl]-2,2-dimethyl-propyl}-amide], for which the values for the IC50 at human liver Cat B and against Der p 1 (mean ± SE) were 3400 ± 187 nM and 18 ± 1 nM, respectively. The logD at 1.5 h in series [1] turned out to be 3.4. Moreover, in series [2], the “duration of protection: trend of inhibition of eosinophil recruitment with increasing pre-treatment interval” value is “rise to a peak”.
For `CC(C)[C@H](NC(=O)[C@H](C)NC(=O)[C@@H](NC(=O)c1ccncc1)C(C)(C)C)C(=O)C(=O)NC1CCCCC1` [Compound 29, N-{(S)-1-[(S)-1-((S)-1-Cyclohexylaminooxalyl-2-methyl-propylcarbamoyl)-ethylcarbamoyl]-2,2-dimethyl-propyl}-isonicotinamide], in that order: 231 ± 17 nM, 13 ± 1 nM, 2.8 and “rise to a peak”.
For the compound `CC(C)[C@H](NC(=O)[C@H](C)NC(=O)[C@@H](NC(=O)C1CCN(C)CC1)C(C)(C)C)C(=O)C(=O)NCc1ccccc1` [Compound 31], the IC50 on human liver Cat B stood at 283 ± 50 nM; at Der p 1 (mean ± SE) it was 19 ± 2 nM.
In turn, `CC(C)[C@H](NC(=O)[C@H](C)NC(=O)[C@H](Cc1ccccc1)NC(=O)c1ccccc1)C(=O)C(=O)NC1CCN(C)CC1` [Compound 34] yielded an IC50 against Der p 1 (mean ± SE) of 115 ± 14 nM.
Consider `CC(C)[C@H](NC(=O)[C@H](C)NC(=O)[C@@H](NC(=O)c1ccccc1)C(C)(C)C)C(=O)C(N)=O` [Compound 36], for which the figures for the IC50 at human liver Cat B and against Der p 1 were 20 ± 3 nM and 6 ± 2 nM, respectively. For the same compound, the logD at 1.5 h in series [1] is 1.7.
Take `CNC(=O)C(=O)[C@@H](NC(=O)[C@H](C)NC(=O)[C@@H](NC(=O)c1ccccc1)C(C)(C)C)C(C)C` [Compound 37]: the IC50 on human liver Cat B is 494 ± 20 nM; on Der p 1 (mean ± SE) it was 24 ± 5 nM.
For `CC(C)[C@H](NC(=O)[C@H](C)NC(=O)[C@@H](NC(=O)c1ccccc1)C(C)(C)C)C(=O)C(=O)NCc1ccc(S(N)(=O)=O)cc1` [Compound 39], in that order: 984 ± 164 nM and 6 ± 1 nM.
`CC(C)[C@H](NC(=O)[C@H](C)NC(=O)[C@@H](NC(=O)c1ccccc1)C(C)(C)C)C(=O)C(=O)NCc1ccc(C(F)(F)F)cc1` [Compound 40] registered a concentration for half-maximal inhibition (IC50) at Der p 1 (mean ± SE) of 47 ± 7 nM.
As to `CC(C)[C@H](NC(=O)[C@H](C)NC(=O)[C@@H](NC(=O)c1ccccc1)C(C)(C)C)C(=O)C(=O)NCc1ccc(CN(C)C)cc1` [Compound 41], the IC50 at human liver Cat B is 242 ± 31 nM; on Der p 1 (mean ± SE) it was 8 ± 1 nM.
Take `CC(C)[C@H](NC(=O)[C@H](C)NC(=O)[C@@H](NC(=O)c1ccccc1)C(C)(C)C)C(=O)C(=O)N[C@H](C)c1ccccc1` [Compound 42]: the results for the IC50 on human liver Cat B and on Der p 1 (mean ± SE) were 459 ± 28 nM and 17 ± 2 nM, respectively.
`CC(C)[C@H](NC(=O)[C@H](C)NC(=O)[C@@H](NC(=O)c1ccccc1)C(C)(C)C)C(=O)C(=O)N[C@@H](C)c1ccccc1` [Compound 43] showed an IC50 at Der p 1 (mean ± SE) of 117 ± 34 nM.
For `CC(C)[C@H](NC(=O)[C@H](C)NC(=O)[C@@H](NC(=O)c1ccccc1)C(C)(C)C)C(=O)C(=O)NCc1cn[nH]c1` [Compound 44], the half-inhibitory concentration (IC50) worked out at 367 ± 34 nM at human liver Cat B and 11 ± 2 nM on Der p 1.
Turning to `CC(C)[C@H](NC(=O)[C@H](C)NC(=O)[C@H](Cc1ccccc1)NC(=O)c1ccccc1)C(=O)C(=O)NCC(=O)N1CCCCC1` [Compound 46], the IC50 on human liver Cat B was 81 ± 6 nM; against Der p 1, 14 ± 3 nM. In series [1], the logD at 1.5 h amounted to 2.6.
Consider `CC(C)[C@H](NC(=O)[C@H](C)NC(=O)[C@@H](NC(=O)c1ccccc1)C(C)(C)C)C(=O)C(=O)NCC(=O)N1CCN(C)CC1` [Compound 48], for which the “inhibition of Cat B” value on human liver Cat B (at 2.5 μM) is reported as “no significant inhibition”. For the same compound, the IC50 is over 2500 nM on human liver Cat B and 14 ± 2 nM against Der p 1 (mean ± SE). The logD at 1.5 h in series [1] was determined as 1.
In the case of `CC(C)[C@H](NC(=O)[C@H](C)NC(=O)[C@H](Cc1ccccc1)NC(=O)c1ccccc1)C(=O)C(=O)NCC(=O)N1CCN(C(C)C)CC1` [Compound 49], the IC50 is over 2500 nM at human liver Cat B and 4 ± 1 nM against Der p 1 (mean ± SE). For the same compound, the logD at 1.5 h in series [1] is 1.6.
With `CC(C)[C@H](NC(=O)[C@H](C)NC(=O)[C@H](Cc1ccccc1)NC(=O)c1ccccc1)C(=O)C(=O)N[C@@H](C)C(=O)N1CCN(C)CC1` [Compound 50], the IC50 at human liver Cat B is over 2500 nM; at Der p 1 (mean ± SE), 10 ± 1 nM.
As to `CC(C)[C@H](NC(=O)[C@H](C)NC(=O)[C@@H](NC(=O)c1ccccc1)C(C)(C)C)C(=O)C(=O)NCC(=O)N1CCc2ccccc2C1` [Compound 51], the results for the IC50 on human liver Cat B and against Der p 1 were 511 ± 88 nM and 6 nM, respectively. Also, in series [1], the logD at 1.5 h worked out at 3.5.
For the compound `CC(C)[C@H](NC(=O)[C@H](C)NC(=O)[C@@H](NC(=O)c1ccccc1)C12CC3CC(CC(C3)C1)C2)C(=O)C(=O)NCC(=O)N1CCN(C)CC1` [Compound 54], the IC50 at human liver Cat B was over 2500 nM; on Der p 1 (mean ± SE), 5 nM. The “duration of protection: trend of inhibition of eosinophil recruitment with increasing pre-treatment interval” value in series [2] is given as “waned”.
Take `CC(C)[C@H](NC(=O)[C@H](C)NC(=O)[C@@H](NC(=O)c1ccnc2ccccc12)C(C)(C)C)C(=O)C(=O)NCC(=O)N1CCN(C(C)C)CC1` [Compound 55]: the IC50 on human liver Cat B was over 2500 nM; against Der p 1 (mean ± SE), 3 nM.
For `CC(C)[C@H](NC(=O)[C@H](C)NC(=O)[C@@H](N1Cc2ccccc2C1=O)C(C)(C)C)C(=O)C(=O)NCc1ccc(S(N)(=O)=O)cc1` [Compound 56], in that order: 3050 ± 1130 nM and 3 nM.
With `CNC(=O)c1ccc(CNC(=O)C(=O)[C@@H](NC(=O)[C@H](C)NC(=O)[C@@H](N2Cc3ccccc3C2=O)C(C)(C)C)C(C)C)cc1` [Compound 57], the IC50 was determined as 3570 ± 850 nM at human liver Cat B and 4 nM at Der p 1 (mean ± SE). Moreover, the “duration of protection: trend of inhibition of eosinophil recruitment with increasing pre-treatment interval” value in series [2] was “rise to a peak”.
On to `CC(C)[C@H](NC(=O)[C@H](C)NC(=O)[C@@H](N1Cc2ccccc2C1=O)C(C)(C)C)C(=O)C(=O)NCc1ccc(CN(C)C)cc1` [Compound 58], for which the IC50 at human liver Cat B was 2850 ± 662 nM; against Der p 1 (mean ± SE) it was 4 nM.
Turning to `CC(C)[C@H](NC(=O)[C@H](C)NC(=O)[C@@H](NC(=O)c1cccc2ccccc12)C(C)(C)C)C(=O)C(=O)NCc1ccc(S(N)(=O)=O)cc1` [Compound 59], the IC50 is 532 ± 136 nM on human liver Cat B and 4 nM against Der p 1 (mean ± SE).

Source of the values: article PMC4257840 (Journal of Medicinal Chemistry, 2014).
